Source: ChEMBL document CHEMBL5244210, “Drug discovery in tuberculosis. New drug targets and antimycobacterial agents” (Eur J Med Chem, 2018)
pIC50: −log10 of the molar value. In brackets after ≈: the same amount, converted by molar mass.

Assays:
[1] = test system: Mycobacterium tuberculosis; experiment: Antibacterial activity against Mycobacterium tuberculosis H37Rv infected in human THP-1 cells assessed as bacterial growth inhibition; assay type: functional
[2] = test system: Mycobacterium tuberculosis; experiment: Antibacterial activity against Mycobacterium tuberculosis infected in mouse RAW264.7 cells assessed as bacterial growth inhibition by REMA assay; assay type: functional, organism-based
[3] = test system: Mycobacterium tuberculosis; experiment: Antibacterial activity against wild type Mycobacterium tuberculosis H37Rv assessed as bacterial growth inhibition; assay type: functional, organism-based
[4] = test system: Mycobacterium tuberculosis; experiment: Antibacterial activity against Mycobacterium tuberculosis H37Rv infected in mouse RAW264.7 cells assessed as bacterial growth inhibition by REMA assay; assay type: functional
[5] = test system: Mycobacterium tuberculosis; experiment: Antibacterial activity against Mycobacterium tuberculosis H37Rv (ATCC 27294) assessed as bacterial growth inhibition incubated for 7 days by MABA assay; assay type: functional; settings: 168 h, time 7 day
[6] = test system: Mycobacterium tuberculosis; experiment: Antibacterial activity against Mycobacterium tuberculosis assessed as bacterial growth inhibition; assay type: functional
[7] = target: T1, Enoyl-[acyl-carrier-protein] reductase [NADH] (Mycobacterium tuberculosis) (UniProt P9WGR1); experiment: Inhibition of Mycobacterium tuberculosis InhA assessed as residence time
T1 sequence (whole entry): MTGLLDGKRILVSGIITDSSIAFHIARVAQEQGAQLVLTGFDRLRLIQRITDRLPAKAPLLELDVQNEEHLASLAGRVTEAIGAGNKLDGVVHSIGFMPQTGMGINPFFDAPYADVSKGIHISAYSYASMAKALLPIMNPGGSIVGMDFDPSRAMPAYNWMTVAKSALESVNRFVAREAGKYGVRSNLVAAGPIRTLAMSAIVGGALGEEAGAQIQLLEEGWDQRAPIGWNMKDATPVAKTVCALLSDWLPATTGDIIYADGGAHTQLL

[8] = test system: Mycobacterium tuberculosis; experiment: Antibacterial activity against Mycobacterium tuberculosis H37Rv assessed as bacterial growth inhibition incubated for 6 days by resazurin staining based assay; assay type: functional; settings: 144 h, time 6 day
[9] = test system: Mycobacterium tuberculosis; experiment: Antibacterial activity against wild type Mycobacterium tuberculosis H37Rv infected in BALB/c mouse assessed as bacterial growth inhibition po administrated for 5 days a week via gavage for 4 weeks; assay type: functional; settings: 672 h
[10] = test system: Mycobacterium tuberculosis; experiment: Antibacterial activity against Mycobacterium tuberculosis assessed as bacterial growth inhibition by HTS assay; assay type: functional
[11] = test system: Mycobacterium tuberculosis; experiment: Antibacterial activity against Mycobacterium tuberculosis MmpL3 assessed as bacterial growth inhibition by HTS assay; assay type: functional
[12] = test system: Mycobacterium tuberculosis; experiment: Antibacterial activity against wild type Mycobacterium tuberculosis H37Rv assessed as bacterial growth inhibition incubated for 6 days by HTS assay; assay type: functional; settings: 144 h, time 6 day
[13] = test system: Mycobacterium tuberculosis; experiment: Antibacterial activity against Mycobacterium tuberculosis H37Rv MTCC 300 assessed as bacterial growth inhibition by alamar blue assay; assay type: functional
[14] = test system: Mycobacterium tuberculosis; experiment: Antibacterial activity against Mycobacterium tuberculosis H37Rv (ATCC 27294) assessed as bacterial growth inhibition by MABA assay; assay type: functional
[15] = test system: Mycobacterium tuberculosis; experiment: Antibacterial activity against Mycobacterium tuberculosis H37RV ATCC 27294 assessed as bacterial growth inhibition; assay type: functional
[16] = test system: Mycobacterium tuberculosis; experiment: Antibacterial activity against Mycobacterium tuberculosis H37Rv infected in mouse RAW264.7 cells assessed as bacterial growth inhibition; assay type: functional
[17] = Oral bioavailability in mouse; assay type: ADME, organism-based; settings: in vivo
[18] = test system: Mycobacterium tuberculosis; experiment: Antibacterial activity against wild type Mycobacterium tuberculosis H37Rv assessed as bacterial growth inhibition by alamar blue staining based assay; assay type: functional

Compound: Cc1c(Cn2cc(C(=O)NCCO)c3ncccc32)ncnc1N(C)C
- MIC [1]: 0.5 µM (≈ 0.177 µg/mL)

Compound: Cc1c(OCC(F)(F)F)ccnc1CSc1nc2ccccc2[nH]1 [LANSOPRAZOLE SULFIDE]
- pIC50 [2]: 6.23
- pIC50 [3]: 6.34
- MIC90 [4]: 1.13 µM (≈ 0.399 µg/mL)

Compound: Cc1cn2c(C(=O)NCc3ccc(C(F)(F)F)cc3)c(C)nc2s1
- MIC [5]: 0.006 µM (≈ 0.00212 µg/mL)

Compound: CCOC(=O)NC(=O)c1ccsc1NC(=O)c1nc2ccccc2s1
- MIC [6]: 0.027 µM (≈ 0.0101 µg/mL)

Compound: CCCCCCc1ccc(Oc2ccccc2C)c(O)c1
- TIME [7]: 0.4 h
- MIC [6]: 8.46 µM (≈ 2.41 µg/mL)

Compound: CCc1ccc([C@H]2C[C@@H](C(F)(F)F)n3ncc(C(=O)NCc4ccc(OC)cc4)c3N2)cc1
- MIC [8]: 0.3 µM (≈ 0.138 µg/mL)

Compound: C[C@H]1COC2(CCN(c3nc(=O)c4cc(C(F)(F)F)cc([N+](=O)[O-])c4s3)CC2)O1 [BTZ-043]
- MIC [9]: 1 ng/mL (≈ 2.32 nM)
- MIC [3]: 0.00023 µM

Compound: O=C(C1CCN(c2nnc(-n3cccc3)s2)CC1)N1CCC(Cc2ccccc2)CC1
- MIC [6]: 4 µM (≈ 1.74 µg/mL)

Compound: Cc1cn2c(C(=O)NCc3ccc(N4CCC(c5ccc(OC(F)(F)F)cc5)CC4)cc3)c(C)nc2s1
- MIC [5]: 0.0009 µM (≈ 0.000476 µg/mL)

Compound: c1cc2c(s1)CCOC21CCN(Cc2ccc3c(c2)OCCO3)CC1
- MIC [8]: 0.3 µM (≈ 0.107 µg/mL)

Compound: O=c1nc(N2CCN(CC3CCCCC3)CC2)sc2c([N+](=O)[O-])cc(C(F)(F)F)cc12 [MACOZINONE]
- MIC [9]: 0.19 ng/mL (≈ 0.416 nM)
- MIC [3]: 0.19 ng/mL

Compound: Cc1c(CN2CCOCC2)cc(-c2ccc(C(C)C)cc2)n1-c1ccc(F)cc1
- MIC [10]: 0.12 µM (≈ 0.0471 µg/mL)

Compound: FC(F)(F)Oc1ccc(Oc2ccc(CN3CCC4(CC3)OCCc3sccc34)cc2)cc1
- MIC [8]: 0.06 µM (≈ 0.0285 µg/mL)

Compound: Oc1cc(Cl)ccc1Oc1ccc(Cl)cc1Cl [TRICLOSAN]
- MIC [6]: 138 µM (≈ 40 µg/mL)

Compound: CN(C)c1ccc(-c2nc3cc(F)c(-n4ccnc4)cc3n2Cc2ccccc2)cc1
- MIC [11]: 30.3 µM (≈ 12.5 µg/mL)

Compound: CC1(C)CCC(NC(=O)c2cc3c(Cl)cc(Cl)cc3[nH]2)CC1
- MIC [12]: 0.015 µM (≈ 0.00509 µg/mL)

Compound: CCCCCCc1ccc(Oc2ccccc2C#N)c(O)c1
- TIME [7]: 1.33 h
- MIC [6]: 11 µM (≈ 3.25 µg/mL)

Compound: O=C(Nc1nnc(-c2ccc([N+](=O)[O-])cc2)s1)C1CC(=O)N(c2ccccc2)C1 (stereo not drawn)
- MIC [13]: 61 µM (≈ 25 µg/mL)

Compound: Fc1cc2nc(Cc3ccc(Cl)cc3)[nH]c2cc1-n1ccnc1
- MIC [11]: 76.5 µM (≈ 25 µg/mL)

Compound: Cc1ccc(-c2nc3ccc(C)cn3c2CC(=O)N(C)C)cc1 [ZOLPIDEM]
- MIC [14]: 10 µM (≈ 3.07 µg/mL)

Compound: C[C@H]1COC2(CCN(c3nc(=O)c4cc(C(F)(F)F)cc(-n5cccc5)c4s3)CC2)O1
- MIC [3]: 0.35 µM

Compound: CC1(C)CCC(NC(=O)c2cc3c(F)cc(F)cc3[nH]2)CC1
- MIC [12]: 0.023 µM (≈ 0.00705 µg/mL)

Compound: CCc1ccn2c(C(=O)NCc3ccc(C)cc3)c(C)nc2c1
- MIC [14]: 0.004 µM (≈ 0.00123 µg/mL)

Compound: OB1c2ccccc2N=C(S)N1c1cccnc1
- MIC [15]: 31.4 µM (≈ 8.01 µg/mL)

Compound: CCc1ccc([C@H]2C[C@@H](C(F)(F)F)n3ncc(C(=O)NCc4ccc5c(c4)OCO5)c3N2)cc1
- MIC [8]: 0.16 µM (≈ 0.0756 µg/mL)

Compound: CCCn1cnc2cc(NCc3ccc(Cl)cc3Cl)ccc21
- MIC [11]: 16 µM (≈ 5.35 µg/mL)

Compound: COc1ccc(CNc2nc3cc(C(F)(F)F)ccc3nc2C(=O)O)cc1
- MIC [3]: 3.1 µM

Compound: O=c1nc(N2CCN(CC3CCCCC3)CC2)sc2c(-n3cccc3)cc(C(F)(F)F)cc12
- MIC [3]: 0.34 µM

Compound: Cc1c(Cn2cc(C(=O)NCCO)c3ncccc32)ncnc1OC(F)F
- MIC [1]: 0.78 µM (≈ 0.294 µg/mL)

Compound: CC[C@@H](CO)NCCN[C@@H](CC)CO [ETHAMBUTOL]
- MIC [6]: 10 µM (≈ 2.04 µg/mL)

Compound: Cc1c(CN2CCN(C)CC2)cc(-c2ccc(Cl)cc2)n1-c1ccc(Cl)cc1
- MIC [10]: 3.62 µM (≈ 1.5 µg/mL)

Compound: Cc1c(OCC(F)(F)F)ccnc1C[S+]([O-])c1nc2ccccc2[nH]1 (stereo not drawn) [LANSOPRAZOLE]
- pIC50 [3]: 5.66

Compound: CC(C)=CCC/C(C)=C/CNCCNC1C2CC3CC(C2)CC1C3 (stereo not drawn) [SQ109]
- MIC [6]: 0.78 µM (≈ 0.258 µg/mL)

Compound: CCc1nc2ccc(Cl)cn2c1C(=O)NCc1ccc(N2CCC(c3ccc(OC(F)(F)F)cc3)CC2)cc1 [TELACEBEC]
- MIC50 [16]: 0.00028 µM (≈ 0.000156 µg/mL)
- MIC50 [3]: 0.0027 µM (≈ 0.0015 µg/mL)
- bioavailability [17]: 90%

Compound: C[C@H]1COC2(CCN(c3nc(=S)c4cc(C(F)(F)F)cc([N+](=O)[O-])c4s3)CC2)O1
- MIC [18]: 0.02 µM (≈ 0.00895 µg/mL)
